In US20140243348A1, “COMPOSITIONS AND METHODS FOR TREATING HERPES VIRUSES” (President and Fellows of Harvard College, priority 2011, published 2014):

How the values were obtained:
[1] = system: wild type HSV-1; assay: HSV yield reduction assay (plaque assay) with HIV integrase inhibitors; format: cell-based; conditions: 100 μM; FIG. 6
Method: At 48 hours post infection, viral yield samples were harvested and the yield was determined by plaque assay. Values are presented as the percent yield remaining, relative to the DMSO vehicle control treatment.
Cells were infected with wild type HSV-1 at a multiplicity of infection of 0.01 plaque-forming units per cell and treated with the indicated concentration of the HIV integrase inhibitor specified. At 48 hours post infection, viral yield samples were harvested and the yield was determined by plaque assay. Values are presented as the percent yield remaining, relative to the DMSO vehicle control treatment.

[2] = target: HCMV UL89 (Human cytomegalovirus, UniProt P16732); conditions: cited from earlier work
[3] = system: HSV-1 KOS virus; assay: Screen of 118-D-24 derivatives on HSV-1 KOS replication in Hep2 cells; format: cell-based; conditions: 250 μM, MOI=0.01, 48 hours, FIG. 12
Method: To evaluate the effects of 118-D-24 derivatives on HSV replication, a panel of derivatives (Table 1) (Zhao, X. Z., 2008, J. Med. Chem., vol. 51, pages 251-259) were screened for their ability to inhibit HSV-1 KOS virus replication in Hep2 cells. Hep2 cells were plated in a 6-well plate and incubated overnight to reach confluency. The cells were then inoculated with HSV-1 KOS virus at MOI=0.01 for 1 hour. Following inoculation, the virus inoculum was replaced with DMEV medium containing 118-D-24 or a derivative of 118-D-24. After 48 hours, samples were harvested by adding an equal volume of 10% non-fat milk and immediately frozen at −80° C. Samples were freeze-thawed three times to rupture the cell membranes and allow the release of virus. Virus titers were determined by titration on Vero cells. The 100% yield represents the viral titer in samples without drug treatment. […] Hep2 cells or (FIG. 14A) or HFF cells (FIG. 14B) were infected with HSV-1 virus (KOS strain) at MOI of 0.01. Samples were then processed and percent yield remaining values were calculated. EC50 and EC90 values were calculated using nonlinear regression curve fit with a variable slope. GaraphPad Prism 5 software was used for all analyses. (FIG. 14C) Cytotoxicity of XZ45 on the viability of Hep2 cells during a 48-hour incubation period was evaluated using the Promega cell titer glo assay, as described by the manufacturer. The reported values are percent […] remaining relative to the […] from cells grown in media containing DMSO alone. CC50 value was determined as described above. FIGS. 14A and 14B show the effects of XZ45 on HSV-1 replication in Hep2 cells (14A) and normal human foreskin fibroblasts (14B) and the cytotoxicity of XZ45 in Hep2 cells is shown in FIG. 14C.

[4] = system: HSV-1 strain KOS, strain F; assay: XZ45 viral yield assay, HSV-1; format: cell-based; conditions: Hep2 or HFF cells, 48 hours; FIG. 15
Method: (§1) Hep2 cells were infected with HSV-1 strain KOS, strain F, or HSV-2 strain G at MOI of 0.01. The infected cells were grown in media containing increasing concentrations of XZ45 or DMSO for 48 hours. Samples were harvested and viral yield was determined by plaque assay on Vero cells. The reported values are percent yield remaining relative to cells grown in media containing DMSO alone (FIG. 15A). Hep2 cells (FIG. 15B) or HFF cells (FIG. 15C) were infected with HSV-1 virus (KOS strain) at MOI of 10 or 0.01 or with human cytomegalovirus (HCMV) (FIG. 16). Samples were then processed and percent yield remaining values were calculated as describe above.

[5] = system: HSV recombination; assay: HSV recombination in Hep2 cells coinfected with 8LacZ and hr99; format: cell-based; conditions: 20 hours after infection, compared to PAA, FIG. 19
Method: To test the effect of XZ45 on HSV recombination during viral replication, 8LacZ (deletion of ul29) and hr99 (deletion of ul5) virus were used to coinfect Hep2 cells in the presence of XZ45 or PAA. At 20 hours after infection, samples were harvested and progeny virus were tittered on Vero cells and V529 cells to determine the viral titer of recombinated virus and total virus. The recombination rate reflects the ratio between the titer of recombinated virus and total virus.

[6] = target: T1, ICP8 (Human herpesvirus 1, UniProt P17470); assay: ssDNA binding by ICP8 (EMSA, ssDNA beads pull down, ssDNA-cellulose); conditions: three assays; FIG. 18A-18C
Method: The effect of XZ45 on ssDNA binding by ICP8 was measured by EMSA assay with purified ICP8 protein using ^32P-labled polynucleotide ssDNA probe (FIG. 18A); ssDNA beads pull down assay (FIG. 18B), and ICP8 binding to ssDNA-cellulose (FIG. 18C).

[7] = system: HSV-1 KOS late (gC) gene products; assay: XZ45 viral gene expression by immunoblotting in Hep2 cells; format: cell-based; conditions: 10 μM XZ45, FIG. 17B
Method: (§2) Hep2 cells were infected with HSV-1 KOS at an MOI=10 in the presence or absence of 10 μM XZ45. Total DNA was harvested at the times indicated, and viral DNA levels in each sample were determined by real-time PCR and were normalized to the levels of cellular DNA. […] Hep2 cells were infected with HSV-1 KOS in the presence or absence of 10 μM XZ45. Lysates were prepared for immunoblotting at the indicated times. Polypeptides were resolved by SDS-PAGE, transferred to a PVDF membrane, and probed for representative immediate-early (ICP27), early (ICP8), and late (gC) gene products.

[8] = system: human cytomegalovirus (HCMV); assay: XZ45 viral yield assay, HCMV; format: cell-based; conditions: FIG. 16
Method: as §1

[9] = target: T1, ICP8; assay: D-loop assay of ICP8 mediated recombination; format: biochemical; conditions: 0, 10, 20, or 40 μM XZ45; FIG. 20
Method: To further test the effect of XZ45 on ICP8 mediated recombination a D-loop assay was used. A double stranded DNA probe was mixed with a single stranded DNA oligonucleotide in the presence or absence of ICP8 with 0, 10, 20, or 40 μM XZ45. Following incubation, the reaction products were analyzed by electrophoresis through a native gel.

[10] = system: HSV-1 KOS viral DNA; assay: XZ45 viral DNA synthesis (real-time PCR) in Hep2 cells; format: cell-based; conditions: 10 μM XZ45, MOI=10, FIG. 17A
Method: as §2

[11] = system: HSV-2 strain G; assay: XZ45 viral yield assay, HSV-2; format: cell-based; conditions: Hep2 cells, MOI 0.01, 48 hours; FIG. 15A
Method: as §1

T1 sequence (P17470 whole entry): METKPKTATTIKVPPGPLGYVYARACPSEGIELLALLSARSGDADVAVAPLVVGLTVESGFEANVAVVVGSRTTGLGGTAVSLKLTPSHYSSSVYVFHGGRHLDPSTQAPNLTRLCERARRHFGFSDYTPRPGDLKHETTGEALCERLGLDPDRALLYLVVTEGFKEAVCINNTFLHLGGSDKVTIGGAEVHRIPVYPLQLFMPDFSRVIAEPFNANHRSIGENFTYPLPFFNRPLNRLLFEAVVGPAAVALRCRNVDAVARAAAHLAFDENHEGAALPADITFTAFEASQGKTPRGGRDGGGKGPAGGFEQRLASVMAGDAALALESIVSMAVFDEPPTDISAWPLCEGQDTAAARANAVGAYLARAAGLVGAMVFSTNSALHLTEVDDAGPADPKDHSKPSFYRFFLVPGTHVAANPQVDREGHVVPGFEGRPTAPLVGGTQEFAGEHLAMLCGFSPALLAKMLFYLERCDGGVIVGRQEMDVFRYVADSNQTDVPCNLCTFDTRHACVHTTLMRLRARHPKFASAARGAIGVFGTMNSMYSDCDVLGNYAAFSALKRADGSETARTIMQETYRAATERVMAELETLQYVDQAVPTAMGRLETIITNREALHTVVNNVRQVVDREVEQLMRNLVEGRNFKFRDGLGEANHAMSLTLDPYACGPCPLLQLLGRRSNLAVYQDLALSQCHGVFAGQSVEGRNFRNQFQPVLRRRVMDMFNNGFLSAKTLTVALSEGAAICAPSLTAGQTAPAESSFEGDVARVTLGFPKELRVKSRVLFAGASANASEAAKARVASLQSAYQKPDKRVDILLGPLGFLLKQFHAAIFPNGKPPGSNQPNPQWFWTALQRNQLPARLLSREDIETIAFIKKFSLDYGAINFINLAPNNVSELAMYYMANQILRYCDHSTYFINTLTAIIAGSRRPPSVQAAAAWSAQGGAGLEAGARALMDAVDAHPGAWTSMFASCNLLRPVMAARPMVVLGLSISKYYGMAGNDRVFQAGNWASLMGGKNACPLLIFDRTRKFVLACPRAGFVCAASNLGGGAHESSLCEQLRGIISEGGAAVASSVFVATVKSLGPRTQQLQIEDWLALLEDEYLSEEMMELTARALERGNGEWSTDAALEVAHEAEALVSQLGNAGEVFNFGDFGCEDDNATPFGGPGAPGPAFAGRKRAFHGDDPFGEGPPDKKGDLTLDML
HCMV UL89, sequence (P16732 whole entry): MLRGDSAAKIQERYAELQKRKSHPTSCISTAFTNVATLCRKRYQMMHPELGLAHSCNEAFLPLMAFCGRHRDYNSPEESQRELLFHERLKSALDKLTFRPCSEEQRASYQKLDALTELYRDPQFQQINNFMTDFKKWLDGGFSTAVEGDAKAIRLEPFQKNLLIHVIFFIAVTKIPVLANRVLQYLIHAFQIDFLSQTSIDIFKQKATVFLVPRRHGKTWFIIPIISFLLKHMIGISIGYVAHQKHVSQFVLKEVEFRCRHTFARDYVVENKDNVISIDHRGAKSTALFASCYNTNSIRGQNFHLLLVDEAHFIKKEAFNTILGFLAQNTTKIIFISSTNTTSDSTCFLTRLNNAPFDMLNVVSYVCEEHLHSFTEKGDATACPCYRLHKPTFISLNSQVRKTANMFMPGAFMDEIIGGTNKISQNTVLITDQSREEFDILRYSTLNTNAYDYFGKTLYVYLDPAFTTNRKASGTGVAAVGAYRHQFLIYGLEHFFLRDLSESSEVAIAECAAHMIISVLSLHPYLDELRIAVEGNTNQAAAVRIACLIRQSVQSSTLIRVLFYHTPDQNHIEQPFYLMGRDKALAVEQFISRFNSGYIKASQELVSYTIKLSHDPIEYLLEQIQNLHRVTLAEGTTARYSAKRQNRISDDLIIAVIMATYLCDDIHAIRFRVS

In the case of `Cc1nnc(C(=O)NC(C)(C)c2nc(C(=O)NCc3ccc(F)cc3)c(O)c(=O)n2C)o1` [Raltegravir], the “reduction of HSV viral yield” value [1] is given as “greater than 96%” and the “HCMV UL89 activity” value [2] is given as “inhibit HCMV UL89 activity”.
With `O=C(NNC(=O)c1cccc(O)c1O)c1cccc(O)c1O` [XZ15] the “viral yield (in words)” value [3] was “significant reductions in viral yield”.
With `O=C(NNC(=O)c1cccc(O)c1O)c1ccccc1O` [XZ45] the “replication of HSV-1” value [4] was “inhibits the replication”, the “HSV recombination (recombination rate)” value [5] was “significantly inhibited HSV recombination” and the “ssDNA binding by ICP8” value [6] was “does not affect ssDNA binding”. The “expression of the late gene (gC) products” value [7] was “significantly inhibited”, the “replication of HCMV” value [8] was “inhibits the replication” and the “ICP8 mediated formation of D-loops” value [9] was “inhibited the ICP8 mediated formation of D-loops”. For the same compound, the “viral DNA synthesis” value [10] was “Inhibits Viral DNA Synthesis”, the “viral yield (in words)” value [3] was “significant reductions in viral yield” and the “replication of HSV-2” value [11] was “inhibits the replication”.
With `O=C1c2c(ccc(O)c2O)CN1N1Cc2ccc(O)c(O)c2C1=O` [XZ48] the “viral yield (in words)” value [3] was “significant reductions in viral yield”.
With `O=C(NN1Cc2ccc(O)c(O)c2C1=O)c1cccc(O)c1O` [XZ49] the “viral yield (in words)” value [3] was “significant reductions in viral yield”.
With `O=C1c2c(ccc(O)c2O)CN1N1C(=O)c2ccc(O)c(O)c2C1=O` [XZ50] the “viral yield (in words)” value [3] was “significant reductions in viral yield”.
In the case of `[N-]=[N+]=NCc1cccc(CN2Cc3ccc(O)c(O)c3C2=O)c1` [XZ99], the “viral yield (in words)” value [3] is reported as “significant reductions in viral yield”.
For `[N-]=[N+]=NCc1cccc(CN2C(=O)c3ccc(O)c(O)c3C2=O)c1` [XZ100], the “viral yield (in words)” value [3] was “significant reductions in viral yield”.
